The text below walks through data of article PMC7933930, “Development of a small molecule that corrects misfolding and increases secretion of Z α1‐antitrypsin” (EMBO Molecular Medicine, 2021).

Data set [1] deals with CHO inducible cells expressing wild‐type M α1‐antitrypsin. The data set can be described thus: Tunicamycin sensitivity, cell viability (Cell Counting Kit‐8), cells expressing M α1‐antitrypsin. The class given is cell-based. Conditions: 10 μM GSK716, cells expressing M α1‐antitrypsin, tunicamycin 36 h. The method, then:
Figure 2 GSK716 inhibits polymerisation of Z α1‐antitrypsin in cell models of disease • A GSK716 was added to CHO‐TET‐ON‐Z‐A1AT cells (Ordóñez et al, 2013) with simultaneous induction of Z α1‐antitrypsin expression using doxycycline, and polymer load was quantified with the 2C1 monoclonal antibody that is specific to pathological polymers of α1‐antitrypsin (Miranda et al, 2010). […] Data were normalised to vehicle and a control compound from the GSK716 series at saturating concentration. […] It induced an approximately threefold increase in secreted levels of Z α1‐antitrypsin compared with vehicle control. This was apparent even after polymers had been allowed to form. Scale bar: 100 µm. Data presented as mean ± SD, n = 8 (secretion) and n = 6 (polymer inhibition). • E CHO tetracycline‐inducible cells expressing Z α1‐antitrypsin were induced with 0.5 μg/ml doxycycline for 48 h and treated with 10 μM GSK716. […] For every time point, NP‐40‐soluble and NP‐40‐insoluble fractions were separated and immunoprecipitated with the 2C1 mAb and resolved by 4–12% w/v SDS–PAGE and α1‐antitrypsin detected by immunoblotting. […] Cell viability was measured by Cell Counting Kit‐8. […] Samples were resolved by 4–12% w/v acrylamide SDS–PAGE and detected by autoradiography. • H The graphs show the effect of GSK716 on intracellular and extracellular Z α1‐antitrypsin (mean ± SEM, n = 2). […]
On the technique in general: Tetrazolium assays rely on reduction of a dye to a coloured formazan, in cell work by metabolically active cells.

For another data set, the target named is LCK (Homo sapiens, UniProt P06239). Put plainly: Off‐target panel: LCK. The data set is classed as biochemical. The note with it: Inhibition, read-out: Mean (PXC50). Here is the method: (§1) GSK716 selectivity and PK properties were profiled in order to investigate the suitability of GSK716 for progression into in vivo studies and the potential for taking it forward as a clinical candidate for testing in humans. Since GSK716 results in loss of inhibitory activity of α1‐antitrypsin, the effect of the compound was assessed on other closely related serpins. […] Furthermore, there were no off‐target effects in a panel of assays considered predictive of known safety liabilities that precluded further development of GSK716 (Table EV1).
LCK, sequence (P06239 whole entry, species assumed): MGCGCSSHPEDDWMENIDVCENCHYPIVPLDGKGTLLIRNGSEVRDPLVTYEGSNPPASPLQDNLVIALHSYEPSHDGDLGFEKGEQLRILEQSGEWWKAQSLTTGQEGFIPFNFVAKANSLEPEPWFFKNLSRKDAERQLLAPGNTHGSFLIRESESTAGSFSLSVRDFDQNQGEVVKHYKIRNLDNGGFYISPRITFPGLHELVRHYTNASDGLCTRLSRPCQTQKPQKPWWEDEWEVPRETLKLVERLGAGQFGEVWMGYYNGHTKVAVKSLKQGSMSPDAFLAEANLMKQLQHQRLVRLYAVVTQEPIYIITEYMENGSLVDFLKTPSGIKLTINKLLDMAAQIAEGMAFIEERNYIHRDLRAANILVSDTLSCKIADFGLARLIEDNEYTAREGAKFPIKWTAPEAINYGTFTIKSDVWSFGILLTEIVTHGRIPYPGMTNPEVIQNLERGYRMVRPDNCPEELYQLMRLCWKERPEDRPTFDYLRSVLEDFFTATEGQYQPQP

The target of another data set is Adrenergic α1B (Homo sapiens, UniProt P35368). Put plainly: Off‐target panel: Adrenergic α1B. The data set is classed as cell-based. Here is the method:
as §1

A further data set concerns the target T1, CYP3A4 (Homo sapiens, UniProt P08684).
T1 construct: pre‐incubated at 37°C with human liver microsomes (0.1 mg/ml); from tissue; host or cells: human liver microsomes
The data set can be described thus: CYP3A4 TDI fold IC50 shift (human liver microsomes, midazolam). The class given is in vitro ADME. The note with it: probe midazolam (12.5 µM), read-out: time‐dependent inhibition of CYP3A4, fold shift in IC50. The method, then:
Seven concentrations of GSK716 (2, 4, 10, 20, 40, 100 and 200 µM) plus a vehicle control (0.25% v/v DMSO in pre‐incubation) were pre‐incubated at 37°C with human liver microsomes (0.1 mg/ml) and NADPH (1 mM) for a range of five pre‐incubation times (5, 10, 15, 20 and 30 min) with a 0 min pre‐incubation, in duplicate. At the end of the individual pre‐incubations, an aliquot of the pre‐incubation mixture was added to an incubation mixture in a 1:20 dilution for GSK716 with the specific CYP3A4 probe substrate, midazolam (12.5 µM, equivalent to 5xKm44) and NADPH (1 mM) for a 5 min. The reactions were terminated by transferring an aliquot of incubation mixture to methanol. The samples were mixed and then centrifuged at 2,500 rpm for 30 min at 4°C. Aliquots of the supernatant were diluted with formic acid (final concentration 0.1 % v/v) in deionised water containing internal standard (metoprolol; final concentration 0.03 mg/l). Samples were analysed by LC‐MS/MS.
For orientation: Liver microsomes are a subcellular fraction often used to study metabolism.

In a further data set the target is Z α1‐antitrypsin (Homo sapiens, UniProt P01009, E366K). Put plainly: Rapid refolding by snap dilution, non‐denaturing PAGE. The data set is classed as biochemical. Further details: purified from the plasma of Z α1‐antitrypsin homozygotes; from tissue; host or cells: human plasma of Z α1-antitrypsin homozygotes. Conditions: snap dilution from denaturant.
Z α1‐antitrypsin, sequence (P01009 25-418 E366K): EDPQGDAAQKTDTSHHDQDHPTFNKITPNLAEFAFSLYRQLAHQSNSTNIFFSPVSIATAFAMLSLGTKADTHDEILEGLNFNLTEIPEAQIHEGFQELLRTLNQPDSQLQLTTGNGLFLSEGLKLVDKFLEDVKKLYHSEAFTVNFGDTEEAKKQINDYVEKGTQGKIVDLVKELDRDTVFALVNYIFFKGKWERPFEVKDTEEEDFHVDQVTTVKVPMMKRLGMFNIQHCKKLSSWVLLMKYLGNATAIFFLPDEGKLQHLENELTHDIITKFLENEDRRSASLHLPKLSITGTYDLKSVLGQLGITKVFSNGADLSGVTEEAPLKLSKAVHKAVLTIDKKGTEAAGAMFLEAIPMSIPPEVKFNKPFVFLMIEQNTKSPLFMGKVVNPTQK
The target in another data set is Histamine H1 (Homo sapiens, UniProt P35367). Put plainly: Off‐target panel: Histamine H1. The class given is cell-based. The note with it: Antagonist, read-out: Mean (PXC50). Here is the method:
as §1

Adrenergic α1B, sequence (P35368 whole entry): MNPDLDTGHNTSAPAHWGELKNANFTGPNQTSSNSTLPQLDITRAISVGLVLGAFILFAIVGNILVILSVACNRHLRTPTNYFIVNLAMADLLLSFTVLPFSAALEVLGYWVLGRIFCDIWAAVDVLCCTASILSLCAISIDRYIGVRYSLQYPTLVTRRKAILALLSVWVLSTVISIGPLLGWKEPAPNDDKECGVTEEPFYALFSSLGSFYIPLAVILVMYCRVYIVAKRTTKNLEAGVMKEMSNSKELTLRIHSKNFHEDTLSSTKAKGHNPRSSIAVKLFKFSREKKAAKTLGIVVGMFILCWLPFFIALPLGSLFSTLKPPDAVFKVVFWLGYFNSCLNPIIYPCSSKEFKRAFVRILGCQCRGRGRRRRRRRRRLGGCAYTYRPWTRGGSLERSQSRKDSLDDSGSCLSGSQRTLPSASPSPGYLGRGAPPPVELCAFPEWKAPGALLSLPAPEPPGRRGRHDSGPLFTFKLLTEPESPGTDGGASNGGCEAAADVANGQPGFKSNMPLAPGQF
T1 sequence (P08684 whole entry): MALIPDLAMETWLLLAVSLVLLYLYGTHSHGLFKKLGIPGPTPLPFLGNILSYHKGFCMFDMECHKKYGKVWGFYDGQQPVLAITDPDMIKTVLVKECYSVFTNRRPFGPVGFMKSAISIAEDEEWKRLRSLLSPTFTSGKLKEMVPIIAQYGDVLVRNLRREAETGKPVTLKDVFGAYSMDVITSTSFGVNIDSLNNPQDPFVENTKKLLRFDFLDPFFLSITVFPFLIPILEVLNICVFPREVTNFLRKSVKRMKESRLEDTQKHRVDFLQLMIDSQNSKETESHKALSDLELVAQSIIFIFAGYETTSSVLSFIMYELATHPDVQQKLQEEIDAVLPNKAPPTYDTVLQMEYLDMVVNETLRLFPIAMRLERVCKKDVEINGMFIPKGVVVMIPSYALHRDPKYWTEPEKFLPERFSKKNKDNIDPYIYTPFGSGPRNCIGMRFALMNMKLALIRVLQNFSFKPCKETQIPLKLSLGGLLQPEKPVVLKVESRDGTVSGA
Histamine H1, sequence (P35367 whole entry): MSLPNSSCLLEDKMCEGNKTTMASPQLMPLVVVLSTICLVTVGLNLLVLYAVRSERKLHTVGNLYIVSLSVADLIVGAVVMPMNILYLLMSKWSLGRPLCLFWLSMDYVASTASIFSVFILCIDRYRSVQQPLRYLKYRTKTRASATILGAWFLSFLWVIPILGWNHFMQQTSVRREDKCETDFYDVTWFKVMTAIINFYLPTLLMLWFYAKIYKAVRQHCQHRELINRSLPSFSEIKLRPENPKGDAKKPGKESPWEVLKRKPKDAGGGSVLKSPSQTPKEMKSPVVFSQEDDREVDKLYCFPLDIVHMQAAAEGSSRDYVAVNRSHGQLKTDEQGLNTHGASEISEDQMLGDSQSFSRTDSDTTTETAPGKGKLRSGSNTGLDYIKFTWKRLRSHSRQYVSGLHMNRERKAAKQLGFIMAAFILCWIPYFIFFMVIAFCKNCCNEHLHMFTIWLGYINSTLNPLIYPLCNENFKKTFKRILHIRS

Take `CCC[C@@H](NC(=O)c1cccc2c1CC(=O)N2)[C@@H](O)c1cccc(F)c1C` [GSK716]: the “survival with tunicamycin (cell viability)” value in data set [1] is “no effect”. The IC50 at LCK was more than 31.6 µM; at Adrenergic α1B it was more than 25.1 µM; on Histamine H1, more than 25.1 µM. The IC50 shift at CYP3A4 amounted to 1.59. The “misfolded by‐product of M* on refolding of the Z variant” value on Z α1‐antitrypsin is “corrected at stoichiometric concentrations and above”.
